Measurements taken from patent US20150038435A1, “N-TERMINALLY MODIFIED OLIGOPEPTIDES AND USES THEREOF” (Novo Nordisk A/S, priority 2012, published 2015).
Starred links: 1 amine or outer side, 2 acyl side, 3 side chain; linkers in the order of their positions; H or OH if unused. Non-standard residues stand in square brackets, D forms with d. *: point of attachment. γGlu = O=C(O)[C@H](CCC(=O)[*:2])N[*:1]; βAsp = O=C(O)[C@H](CC(=O)[*:2])N[*:1]; C12 diacid = O=C(O)CCCCCCCCCCC(=O)*; Myristoyl = CCCCCCCCCCCCCC(=O)*; Lauroyl = CCCCCCCCCCCC(=O)*; Decanoyl = CCCCCCCCCC(=O)*

What was measured:
Trypsin = assay: Inhibition of enzymatic degradation of a model GLP-1 (FRET substrate) by trypsin; assay type: biochemical; details: for EC50: read-out: EC50 Trypsin (0.001 mg/ml), 0.001 mg/ml trypsin, 37° C.
From the text: (§1) The use of Förster resonance energy transfer (FRET), also known as fluorescence resonance energy transfer, substrates to monitor activity of proteolytic enzymes is known in the field (for example Anjuere, F. et al. (1993). Biochem J 291 (Pt 3), 869-73).
(§2) Model GLP-1 analogue was designed as FRET substrate by incorporation of 7-Methoxycoumarin-4-acetic acid (MCA) group as the donor chromophore and dinitrophenol group (DNP) as the acceptor chromophore.
(§3) An assay following the increase in fluorescence as a function of time was established in 96 well format using Varioskan Flash Multimode Meter (Thermo Scientific). Each well contained 70 μl of Dulbecco's phosphate buffer saline (Invitrogen catalogue #14190-094), 10 μl of 100 μM GLP-1 FRET substrate, 10 μl of N-terminally acylated peptide or oligopeptide of the invention in varying concentration and 10 μl of a stock solution of an enzyme (chymotrypsin, trypsin, elastase, etc.). The incubations were performed at 37° C. Fluorescence (320 nm excitation wavelength and 405 nm emission wavelength) was measured immediately after addition of the enzyme to the 96 well plate and also every minute for at least the next 30 minutes. The concentration of the enzyme was optimized to allow determination of slopes for the time course of initial fluorescence increase with and without the N-terminally acylated peptides or oligopeptides of the invention. The slopes were determined by linear regression of the linear part of the fluorescence trace (for example, the first 10 min of the reaction). Each assay was performed in duplicate and average of the two traces was included in the calculations. The relative effect of N-terminally acylated peptide or oligopeptides of the invention on enzymatic degradation of GLP-1 FRET substrate was obtained by comparison of the slopes achieved by the same concentration of the N-terminally acylated peptide or oligopeptides. […] This was done by plotting the slopes achieved with different concentrations of the N-terminally acylated peptide or oligopeptides of the invention as a function of their concentrations and fitting the experimental results using, for example, sigmoidal logistic regression (2 parameters, Sigma Plot v 11). Inhibition constants for the interaction between the N-terminally acylated peptide or oligopeptides of the invention and proteolytic enzymes were also obtained by performing the assay described above with varying concentrations of the inhibitor and substrate and analyzing the results, for example, by double reciprocal transformation as known to the person skilled in the art and described for example in Hubalek, F. et al., J. Med. Chem. 47, 1760-1766 (2004).
(§4) The EC50 was determined for the following compounds. EC50±standard error is reported if the results of at least 3 independent measurements were available.

[1] = Hydrophobicity: retention time during reverse phase HPLC; assay type: physicochemical; details: Acquity CSH C18; pH 7.2 buffer/CH3CN gradient; 40° C.
From the text: The retention time (RT) during reverse phase HPLC was taken as a measure of hydrophobicity of an N-terminally modified peptide or oligopeptide of the invention, where the connection is: The longer the RT, the more hydrophobic N-terminally modified peptide or oligopeptide. The following running conditions were applied during HPLC analysis:
Buffer B: 70% (v/v) aq. CH3CN

Chymotrypsin = assay: Inhibition of enzymatic degradation of a model GLP-1 (FRET substrate) by chymotrypsin; assay type: biochemical; details: for EC50: read-out: EC50 Chymotrypsin (0.001 mg/ml), 0.001 mg/ml chymotrypsin, 37° C., ± standard error if at least 3 measurements
From the text: as §1, §2, §3, §4

[2] = compound 0.1 mM, buffer containing 8% DMSO

Substance	RT (retention time during reverse phase HPLC as a measure of hydrophobicity) [1] [min]	EC50 (Chymotrypsin) [µM]	EC50 (Trypsin) [µM]	other results
Ala-Ala-Pro-Phe-OH [Example 14]	3.08			Slope of the initial increase in fluorescence obtained during incubation with 0.001 mg/ml Trypsin (Trypsin; compound 1 mM): 4.46; Slope of the initial increase in fluorescence obtained during incubation with 0.001 mg/ml Chymotrypsin (Chymotrypsin; compound 1 mM): 3.53
N-decanoyl-Ala-Ala-Pro-Arg-OH (Decanoyl-AAPR-OH; SMILES CCCCCCCCCC(=O)N[C@@H](C)C(=O)N[C@@H](C)C(=O)N1CCC[C@H]1C(=O)N[C@@H](CCCNC(=N)N)C(=O)O) [Example 20]	3.79	> 500		
N-dodecandioyl-Ala-Ala-Pro-Phe-OH ({C12 diacid}-AAPF-OH) [Example 15]	3.13			Slope of the initial increase in fluorescence obtained during incubation with 0.001 mg/ml Trypsin (Trypsin; compound 1 mM): 4.17; Slope of the initial increase in fluorescence obtained during incubation with 0.001 mg/ml Chymotrypsin (Chymotrypsin; compound 1 mM): 2.07
N-dodecanoyl-Aib-Aib-Pro-Phe-OH [Example 7]	8.06			Slope of the initial increase in fluorescence obtained during incubation with 0.001 mg/ml Trypsin (Trypsin; compound 1 mM): 0.49; Slope of the initial increase in fluorescence obtained during incubation with 0.001 mg/ml Chymotrypsin (Chymotrypsin; compound 1 mM): 0.34
N-dodecanoyl-Ala-Ala-Ala-Ala-Pro-Phe-OH [Example 19]	6.57	121	38	
N-dodecanoyl-Ala-Ala-Ala-Pro-Phe-OH [Example 18]	6.59	167		
N-dodecanoyl-Ala-Ala-Ala-Pro-Tyr-OH [Example 56]	5.74			Slope of the initial increase in fluorescence obtained during incubation with 0.001 mg/ml Trypsin (Trypsin; [2]): 1.92; Slope of the initial increase in fluorescence obtained during incubation with 0.001 mg/ml Chymotrypsin (Chymotrypsin; [2]): 0.59
N-dodecanoyl-Ala-Ala-Ala-Tyr-OH (Lauroyl-AAAY-OH; SMILES CCCCCCCCCCCC(=O)N[C@@H](C)C(=O)N[C@@H](C)C(=O)N[C@@H](C)C(=O)N[C@@H](Cc1ccc(O)cc1)C(=O)O) [Example 57]	5.73			Slope of the initial increase in fluorescence obtained during incubation with 0.001 mg/ml Trypsin (Trypsin; [2]): 1.59; Slope of the initial increase in fluorescence obtained during incubation with 0.001 mg/ml Chymotrypsin (Chymotrypsin; [2]): 1.65
N-dodecanoyl-Ala-Ala-Arg-Tyr-OH (Lauroyl-AARY-OH; SMILES CCCCCCCCCCCC(=O)N[C@@H](C)C(=O)N[C@@H](C)C(=O)N[C@@H](CCCNC(=N)N)C(=O)N[C@@H](Cc1ccc(O)cc1)C(=O)O) [Example 58]	4.87			Slope of the initial increase in fluorescence obtained during incubation with 0.001 mg/ml Trypsin (Trypsin; [2]): 1.98; Slope of the initial increase in fluorescence obtained during incubation with 0.001 mg/ml Chymotrypsin (Chymotrypsin; [2]): 0.28
N-dodecanoyl-Ala-Ala-Asn-Tyr-OH (Lauroyl-AANY-OH; SMILES CCCCCCCCCCCC(=O)N[C@@H](C)C(=O)N[C@@H](C)C(=O)N[C@@H](CC(N)=O)C(=O)N[C@@H](Cc1ccc(O)cc1)C(=O)O) [Example 59]	7.88			Slope of the initial increase in fluorescence obtained during incubation with 0.001 mg/ml Trypsin (Trypsin; [2]): 1.72; Slope of the initial increase in fluorescence obtained during incubation with 0.001 mg/ml Chymotrypsin (Chymotrypsin; [2]): 1.79
N-dodecanoyl-Ala-Ala-Asp-Tyr-OH (Lauroyl-AADY-OH; SMILES CCCCCCCCCCCC(=O)N[C@@H](C)C(=O)N[C@@H](C)C(=O)N[C@@H](CC(=O)O)C(=O)N[C@@H](Cc1ccc(O)cc1)C(=O)O) [Example 60]	4.33			Slope of the initial increase in fluorescence obtained during incubation with 0.001 mg/ml Trypsin (Trypsin; [2]): 1.73; Slope of the initial increase in fluorescence obtained during incubation with 0.001 mg/ml Chymotrypsin (Chymotrypsin; [2]): 0.91
N-dodecanoyl-Ala-Ala-Gln-Tyr-OH (Lauroyl-AAQY-OH; SMILES CCCCCCCCCCCC(=O)N[C@@H](C)C(=O)N[C@@H](C)C(=O)N[C@@H](CCC(N)=O)C(=O)N[C@@H](Cc1ccc(O)cc1)C(=O)O) [Example 61]	8.28			Slope of the initial increase in fluorescence obtained during incubation with 0.001 mg/ml Trypsin (Trypsin; [2]): 2.07; Slope of the initial increase in fluorescence obtained during incubation with 0.001 mg/ml Chymotrypsin (Chymotrypsin; [2]): 2.20
N-dodecanoyl-Ala-Ala-Glu-Tyr-OH (Lauroyl-AAEY-OH; SMILES CCCCCCCCCCCC(=O)N[C@@H](C)C(=O)N[C@@H](C)C(=O)N[C@@H](CCC(=O)O)C(=O)N[C@@H](Cc1ccc(O)cc1)C(=O)O) [Example 62]	4.36			Slope of the initial increase in fluorescence obtained during incubation with 0.001 mg/ml Trypsin (Trypsin; [2]): 1.66; Slope of the initial increase in fluorescence obtained during incubation with 0.001 mg/ml Chymotrypsin (Chymotrypsin; [2]): 1.35
N-dodecanoyl-Ala-Ala-Pro-Phe-Pro-OH [Example 24]	6.88	379		
N-dodecanoyl-Ala-Ala-Pro-Tyr-OH [Example 17] (Lauroyl-AAPY-OH; SMILES CCCCCCCCCCCC(=O)N[C@@H](C)C(=O)N[C@@H](C)C(=O)N1CCC[C@H]1C(=O)N[C@@H](Cc1ccc(O)cc1)C(=O)O)	5.83			
N-dodecanoyl-γGlu-Ala-Ala-Pro-Arg-OH [Example 25]	3.66	> 500		

Substance	RT (retention time during reverse phase HPLC as a measure of hydrophobicity) [1] [min]	EC50 (Chymotrypsin) [µM]	EC50 (Trypsin) [µM]	other results
N-dodecanoyl-γGlu-Ala-Pro-Arg-OH (Lauroyl-[γGlu]APR-OH; SMILES CCCCCCCCCCCC(=O)N[C@@H](CCC(=O)N[C@@H](C)C(=O)N1CCC[C@H]1C(=O)N[C@@H](CCCNC(=N)N)C(=O)O)C(=O)O) [Example 21]	3.66	> 500		
N-dodecanoyl-γGlu-Ala-Pro-Phe-OH (Lauroyl-[γGlu]APF-OH; SMILES CCCCCCCCCCCC(=O)N[C@@H](CCC(=O)N[C@@H](C)C(=O)N1CCC[C@H]1C(=O)N[C@@H](Cc1ccccc1)C(=O)O)C(=O)O) [Example 22]	4.09	> 500		
N-tetradecanoyl-Thr-Ala-Ala-Pro-Phe-OH [Example 173]		51	93	
N-tetradecanoyl-Thr-Ala-Ala-Pro-Tyr-OH [Example 158]		58	112	
N-tetradecanoyl-Trp-Pro-Tyr-OH [Example 153]		38	43	
N-tetradecanoyl-bAsp-Ala-Ala-Pro-Phe-OH [Example 164]		54	343	
N-tetradecanoyl-bAsp-Ala-Pro-Phe-OH (Myristoyl-[βAsp]APF-OH; SMILES CCCCCCCCCCCCCC(=O)N[C@@H](CC(=O)N[C@@H](C)C(=O)N1CCC[C@H]1C(=O)N[C@@H](Cc1ccccc1)C(=O)O)C(=O)O) [Example 165]		154	120	
N-tetradecanoyl-eLys-His-Ala-Arg-Pro-Phe-OH [Example 196]		6	75	
N-tetradecanoyl-βAla-βAla-βAla-βAla-Pro-Phe-OH [Example 137]	7.7	> 500		
N-tetradecanoyl-γGlu-Ala-Arg-Pro-Phe-OH [Example 179]		84	80	
N-tetradecanoyl-γGlu-Ala-Pro-D-Trp-OH [Example 177]		95	200	
N-tetradecanoyl-γGlu-Ala-Pro-Trp-OH (Myristoyl-[γGlu]APW-OH; SMILES CCCCCCCCCCCCCC(=O)N[C@@H](CCC(=O)N[C@@H](C)C(=O)N1CCC[C@H]1C(=O)N[C@@H](Cc1c[nH]c2ccccc12)C(=O)O)C(=O)O) [Example 176]		105	63	
N-tetradecanoyl-γGlu-D-Ala-D-Ala-D-Pro-D-Phe-OH [Example 156]		428	> 500	
N-tetradecanoyl-γGlu-His-Ala-Arg-Pro-Phe-OH [Example 194]		19	84	
N-tetradecanoyl-γGlu-βAla-βAla-Pro-Phe-OH [Example 139]	4.95	> 500		
